Reference: patent US11084826B2, “RSV antiviral pyrazolo- and triazolo-pyrimidine compounds” (Janssen Sciences Ireland Unlimited Company, priority 2015, dated 2021)

Experiments:
[1] = tested on: rgRSV224 virus; test: Antiviral activity: inhibition of rgRSV224 (GFP-expressing RSV) replication in HeLa cells, GFP expression read-out; type: cell-based, respiratory syncytial virus (RSV); conditions: human respiratory syncytial virus, HeLa, read-out: RSV HELA pEC50, rgRSV224 virus (MOI=1) in HeLa cells, GFP read-out (converted)
In short: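 EC50 is the 50% inhibitory concentration for GFP expression, read by laser microscopy three days after rgRSV224 infection (MOI=1) of HeLa cells (3,000/well). Compounds were tested as 9 serial 4-fold dilutions at 0.05% DMSO, and cells were incubated at 37° C under 5% CO2.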

[2] = Cytotoxicity in HeLa cells, ATP content measured with the ATPlite kit; type: cell-based; conditions: human, TOX HELA pCC50

SMILES: CCc1cc(C(=O)N2CCCCC[C@H]2C)nc2cc(-c3ccc(N4C[C@@H]5CC(C(=O)O)=C[C@@H]5C4)cc3F)nn12 [Compound W12]
- melting point: 252.19 °C
- EC50 [1]: 204 nM
- CC50 at 3 days [2]: 63100 nM

SMILES: CCc1cc(C(=O)N2CCCCCC2C)nc2cc(-c3ccc(-c4ncc(C)cn4)cc3F)nn12 (stereo not drawn) [Compound F17]
- melting point: 140 to 145 °C
- EC50 [1]: 646 nM
- CC50 at 3 days [2]: > 25100 nM

SMILES: CCc1cc(C(=O)N2CCCCCC2C)nc2nc(-c3ccc(C(N)=O)cc3F)nn12 (stereo not drawn) [Compound V1]
- melting point: 215 to 220 °C
- EC50 [1]: 1910 nM
- CC50 at 3 days [2]: > 25100 nM

SMILES: C[C@@H]1c2ccccc2CCN1C(=O)c1cc(C2CC2)n2nc(-c3ccc(-n4cc(C(=O)O)cn4)cc3F)cc2n1 [Compound W33]
- melting point: 257.75 °C
- EC50 [1]: 16.2 nM
- CC50 at 3 days [2]: 57500 nM

SMILES: CCc1cc(C(=O)N2CCCCC[C@H]2C)nc2cc(-c3ccc(-n4cc(C(=O)O)c(Cl)n4)cc3F)nn12 [Compound W35]
- melting point: 145.75 °C
- EC50 [1]: 191 nM
- CC50 at 3 days [2]: > 25100 nM

SMILES: C[C@@H]1c2ccccc2CCN1C(=O)c1cc(C2(C)CC2)n2nc(-c3ccc(N4CC[C@H](C(=O)O)C4)cc3F)cc2n1 [Compound W34]
- melting point: 162.08 °C
- EC50 [1]: 11.2 nM
- CC50 at 3 days [2]: 43700 nM

SMILES: CCc1cc(C(=O)N2CCCCCCC2C)nc2cc(-c3ccccc3F)nn12 (stereo not drawn) [Compound A18]
- melting point: 125 to 130 °C
- EC50 [1]: 355 nM
- CC50 at 3 days [2]: > 100000 nM

SMILES: CCc1cc(C(=O)N2CCCCC2C)nc2cc(-c3ccc(NC(=O)C4CC4)cc3)nn12 (stereo not drawn) [Compound E15]
- melting point: 260 to 265 °C
- EC50 [1]: 832 nM
- CC50 at 3 days [2]: > 96200 nM

SMILES: CCc1cc(C(=O)N2CCCCCC2C)nc2cc(-c3ccc(NC(=O)Cc4ccncc4)cc3F)nn12 (stereo not drawn) [Compound E2]
- melting point: 195 to 200 °C
- EC50 [1]: 93.3 nM
- CC50 at 3 days [2]: > 25100 nM

SMILES: CCOc1cc(C(=O)N2CCCCC[C@H]2C)nc2cc(-c3ccc(/C=C/C(=O)O)cc3F)nn12 [Compound M24]
- melting point: 213.66 °C
- EC50 [1]: 380 nM
- CC50 at 3 days [2]: > 100000 nM

SMILES: CCc1cc(C(=O)N2CCCCC[C@H]2C)nc2cc(-c3ccc4ccc(C(=O)O)cc4c3F)nn12 [Compound F36]
- melting point: 274.48 °C
- EC50 [1]: 46.8 nM
- CC50 at 3 days [2]: > 100000 nM

SMILES: CC(C)Cc1cc(C(=O)N2CCCCC[C@H]2C)nc2cc(-c3ccc(-c4ccc(C(=O)O)cn4)cc3F)nn12 [Compound F41]
- melting point: 197.2 °C
- EC50 [1]: 36.3 nM
- CC50 at 3 days [2]: 22400 nM

SMILES: CCc1cc(C(=O)N2CCc3ccccc3C2C)nc2cc(-c3ccc(/C=C/C(=O)O)cc3F)nn12 (stereo not drawn) [Compound M11]
- melting point: 225 to 230 °C
- EC50 [1]: 38 nM
- CC50 at 3 days [2]: > 25100 nM

SMILES: CC1c2ccsc2CCN1C(=O)c1cc(C2CC2)n2nc(-c3cccc(/C=C/C(=O)O)c3F)cc2n1 (stereo not drawn) [Compound M46]
- melting point: 265.43 °C
- EC50 [1]: 5.01 nM
- CC50 at 3 days [2]: 67600 nM

SMILES: CCc1cc(C(=O)N2CCCCC[C@H]2C)nc2cc(-c3ccc4c(c3F)OC[C@@H](C(=O)O)C4)nn12 (racemic) [Compound F65]
- melting point: 186.2 °C
- EC50 [1]: 141 nM
- CC50 at 3 days [2]: > 100000 nM

SMILES: CCc1cc(C(=O)N2CCc3ccccc3[C@H]2C)nc2cc(-c3ccc(-n4cc(C(=O)O)cn4)cc3F)nn12 [Compound W27]
- melting point: 144.43 °C
- EC50 [1]: 39.8 nM
- CC50 at 3 days [2]: 46800 nM

SMILES: CCc1cc(C(=O)N2CCCCCC2C)nc2cc(-c3ccc(NC(=O)CCOC)cc3F)nn12 (stereo not drawn) [Compound E7]
- melting point: 175 to 180 °C
- EC50 [1]: 117 nM
- CC50 at 3 days [2]: > 25100 nM

SMILES: CC1CCCCCN1C(=O)c1cc(C(F)(F)F)n2nc(-c3ccc(C(N)=O)cc3F)cc2n1 (stereo not drawn) [Compound I31]
- melting point: 238 to 240 °C
- EC50 [1]: 141 nM
- CC50 at 3 days [2]: > 25100 nM

SMILES: CCc1cc(C(=O)N2CCCCC[C@H]2C)nc2cc(-c3ccc(C(N)=O)cc3)nn12 [Compound A26]
- melting point: 160 to 165 °C
- EC50 [1]: 195 nM
- CC50 at 3 days [2]: > 25100 nM

SMILES: CCc1cc(C(=O)N2CCCCCC2C)nc2cc(-c3ccc(-c4cncnc4)cc3)nn12 (stereo not drawn) [Compound F3]
- melting point: 185 °C
- EC50 [1]: 832 nM
- CC50 at 3 days [2]: > 100000 nM

SMILES: CCc1cc(C(=O)N2CCCCC[C@H]2C)nc2cc(-c3ccc(NC(=O)C4CC4)cc3F)nn12 [Compound E10]
- melting point: 225 to 230 °C
- EC50 [1]: 91.2 nM
- CC50 at 3 days [2]: > 25100 nM

SMILES: CC1c2ccsc2CCN1C(=O)c1cc(C2(C)CC2)n2nc(-c3ccc(-n4cc(C(=O)O)cn4)cc3F)cc2n1 (racemic) [Compound W39]
- melting point: 265.13 °C
- EC50 [1]: 28.2 nM
- CC50 at 3 days [2]: 55000 nM

SMILES: CCc1cc(C(=O)N2CCCCC[C@H]2C)nc2cc(-c3ccc(N4CC[C@H](C(=O)O)C4)cc3F)nn12 [Compound W7]
- melting point: 205.8 °C
- EC50 [1]: 47.9 nM
- CC50 at 3 days [2]: 70800 nM

SMILES: CCc1cc(C(=O)N2CCc3sccc3C2C)nc2cc(-c3ccc(-c4ccc(C(=O)O)cn4)cc3F)nn12 (racemic) [Compound F60]
- melting point: 270.54 °C
- EC50 [1]: 45.7 nM
- CC50 at 3 days [2]: > 25100 nM

SMILES: CCc1cc(C(=O)N2CCCCC[C@H]2C)nc2cc(-c3ccc(C(=O)O)cc3F)nn12 [Compound K5]
- melting point: 148 °C
- EC50 [1]: 309 nM
- CC50 at 3 days [2]: > 25100 nM

SMILES: CCc1cc(C(=O)N2CC[C@@H]3CCCC[C@@H]3[C@H]2C)nc2cc(-c3ccc(/C=C/C(=O)O)cc3F)nn12 (racemic) [Compound M50]
- melting point: 184.15 °C
- EC50 [1]: 191 nM
- CC50 at 3 days [2]: 46800 nM

SMILES: C[C@@H]1CCCCCN1C(=O)c1cc(C2CC2)n2nc(-c3ccc(C4C[C@H]4C(=O)O)cc3F)cc2n1 (single isomer, unassigned) [Compound O7]
- melting point: 245.75 °C
- EC50 [1]: 39.8 nM
- CC50 at 3 days [2]: 45700 nM

SMILES: CCc1cc(C(=O)N2CCCCCC2C)nc2cc(-c3ccc(NC(=O)NCC4CCCO4)cc3)nn12 (stereo not drawn) [Compound B5]
- melting point: 205 °C
- EC50 [1]: 166 nM
- CC50 at 3 days [2]: > 100000 nM

SMILES: C[C@@H]1CCCCCN1C(=O)c1cc(C2(C)CC2)n2nc(-c3ccc(-c4ccc(C(=O)O)cn4)cc3F)cc2n1 [Compound F31]
- melting point: 257.89 °C
- EC50 [1]: 49 nM
- CC50 at 3 days [2]: 32400 nM

SMILES: C[C@@H]1CCCCCN1C(=O)c1cc(C2(C)COC2)n2nc(-c3ccc(-n4cc(C(=O)O)cn4)cc3F)cc2n1 (racemic) [Compound W36]
- melting point: 223.2 °C
- EC50 [1]: 151 nM
- CC50 at 3 days [2]: > 25100 nM

SMILES: CCc1cc(C(=O)N2CC(C)(C)c3ccccc3C2C)nc2cc(-c3ccc(C(=O)O)cc3F)nn12 (stereo not drawn) [Compound K6]
- melting point: 235 to 240 °C
- EC50 [1]: 2400 nM
- CC50 at 3 days [2]: > 25100 nM

SMILES: CCc1cc(C(=O)N2CCCCCC2C)nc2cc(-c3ccc(NC(=S)NCC4CCCO4)cc3F)nn12 (stereo not drawn) [Compound B13]
- melting point: 210 to 215 °C
- EC50 [1]: 398 nM
- CC50 at 3 days [2]: > 25100 nM

SMILES: CCc1cc(C(=O)N2CCn3c(C)ccc3C2C)nc2cc(-c3ccc(/C=C/C(=O)O)cc3F)nn12 (stereo not drawn) [Compound M42]
- melting point: 240 to 245 °C
- EC50 [1]: 191 nM
- CC50 at 3 days [2]: > 25100 nM

SMILES: CCc1cc(C(=O)N2CCCCCC2C)nc2cc(-c3ccc(C(=O)NCc4cccs4)cc3F)nn12 (stereo not drawn) [Compound L8]
- melting point: 156 °C
- EC50 [1]: 324 nM
- CC50 at 3 days [2]: > 25100 nM

SMILES: CCc1cc(C(=O)N2CCCCCC2C)nc2cc(-c3ccc(NC(=O)CCC(=O)NC)cc3)nn12 (stereo not drawn) [Compound E29]
- melting point: 204 to 205 °C
- EC50 [1]: 457 nM
- CC50 at 3 days [2]: > 25100 nM

SMILES: CCc1cc(C(=O)N2CCCCCC2C)nc2cc(-c3ccc(N(C)C)cc3F)nn12 (stereo not drawn) [Compound A6]
- melting point: 84 °C
- EC50 [1]: 724 nM
- CC50 at 3 days [2]: 57500 nM

SMILES: CCc1cc(C(=O)N2CCCCCC2C)nc2cc(-c3ccc(NC(=O)Cn4ccnc4)cc3F)nn12 (stereo not drawn) [Compound E3]
- melting point: 155 to 160 °C
- EC50 [1]: 132 nM
- CC50 at 3 days [2]: 6460 nM

SMILES: CCc1cc(C(=O)N2CCCCCC2C)nc2cc(-c3ccc(NC(=O)CCC(=O)O)cc3F)nn12 (stereo not drawn) [Compound E24]
- melting point: 225 to 230 °C
- EC50 [1]: 282 nM
- CC50 at 3 days [2]: > 25100 nM

SMILES: CCc1cc(C(=O)N2CCCCCC2C)nc2cc(-c3ccc(NC(=O)NC4CC4)cc3)nn12 (stereo not drawn) [Compound B8]
- melting point: 240 to 245 °C
- EC50 [1]: 240 nM
- CC50 at 3 days [2]: 17000 nM
